Laboratory results from patent US20230167088A1, “1-PYRAZINYLPYRAZOLYL-3-OXYALKYL ACIDS AND THEIR DERIVATIVES, AND THEIR USE FOR CONTROL OF UNDESIRED PLANT GROWTH” (BAYER AKTIENGESELLSCHAFT, priority 2020, published 2023).

Legend:
[1] = system: ECHCG; assay: Herbicidal post-emergence action 1a (greenhouse pots, visual rating); assay type: in vivo, Echinochloa crus-galli; conditions: rated visually about 3 weeks after treatment, 100% = plants have died, 0% = like control plants
In short: (§1)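 Weeds and crops sown in sandy loam in greenhouse pots were sprayed post-emergence at the one-leaf stage (2–3 weeks after sowing) with WP or EC formulations plus 0.5% additive at 600 l/ha water, 320 and/or 80 g/ha. About 3 weeks later damage was rated visually against untreated controls (0% = no effect, 100% = dead).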

[2] = system: ABUTH; assay: Herbicidal pre-emergence action 2a (greenhouse pots, visual scoring); assay type: in vivo, Abutilon theophrasti; conditions: dosage 320 g/ha, visual scoring after about 3 weeks vs untreated controls
Description: (§2) [table] a) Seeds of monocotyledonous and dicotyledonous weed plants and crop plants are placed in plastic or organic plant pots and covered with soil. The compounds of the invention, formulated in the form of wettable powders (WP) or as emulsion concentrates (EC), are then applied onto the surface of the covering soil as aqueous suspension or emulsion with addition of 0.5% additive at a water application rate of 600 1/ha (converted). After the treatment, the pots are placed in a greenhouse and kept under good growth conditions for the trial plants. After about 3 weeks, the effect of the preparations is scored visually in comparison with untreated controls as percentages. For example, 100% activity=the plants have died, 0% activity=like control plants. Tables B1 to B15 below show the effects of selected compounds of the general formula (I) according to Tables 1 and 2 on various harmful plants and an application rate corresponding to 320 g/ha and/or 80 g/ha, which were obtained by the experimental procedure mentioned above.

[3] = system: ALOMY; assay: as above; assay type: in vivo, Alopecurus myosuroides; conditions: dosage 320 g/ha, visual scoring after about 3 weeks
In short: (§3)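 Pre-emergence greenhouse pot test: WP or EC formulations sprayed onto covering soil over sown seeds at 600 l/ha water with 0.5% additive, at rates corresponding to 320 g/ha and/or 80 g/ha. Visual % activity versus untreated controls after about 3 weeks (100% = plants dead).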

[4] = system: MATIN; assay: as above; assay type: in vivo, Matricaria inodora; conditions: dosage 320 g/ha, visual scoring after about 3 weeks vs untreated controls
In short: as §3

[5] = system: AMARE; assay: Herbicidal post-emergence action 1a (greenhouse pots, visual rating); assay type: in vivo, Amaranthus retroflexus; conditions: visual rating about 3 weeks after treatment
In short: as §1

[6] = system: LOLRI; assay: as above; assay type: in vivo, Lolium rigidum; conditions: rated visually about 3 weeks after treatment, 100% = plants have died, 0% = like control plants
In short: as §1

[7] = system: SETVI; assay: as above; assay type: in vivo, Setaria viridis; conditions: rated visually about 3 weeks after treatment, 100% = plants have died, 0% = like control plants
In short: as §1

[8] = system: POLCO; assay: Herbicidal pre-emergence action 2a (greenhouse pots, visual scoring); assay type: in vivo, Polygonum convolvulus; conditions: dosage 320 g/ha, visual scoring after about 3 weeks vs untreated controls
In short: as §3

[9] = system: PHBPU; assay: as above; assay type: in vivo, Pharbitis purpurea; conditions: dosage 320 g/ha, visual scoring after about 3 weeks vs untreated controls
Description: as §2

[10] = system: ECHCG; assay: as above; assay type: in vivo, Echinochloa crus-galli; conditions: dosage 320 g/ha, visual scoring after about 3 weeks
In short: as §3

[11] = system: PHBPU; assay: Herbicidal post-emergence action 1a (greenhouse pots, visual rating); assay type: in vivo, Pharbitis purpurea; conditions: visual rating about 3 weeks after treatment
In short: as §1

[12] = system: SETVI; assay: Herbicidal pre-emergence action 2a (greenhouse pots, visual scoring); assay type: in vivo, Setaria viridis; conditions: dosage 320 g/ha, visual scoring after about 3 weeks vs untreated controls
In short: as §3

[13] = system: AVEFA; assay: as above; assay type: in vivo, Avena fatua; conditions: dosage 320 g/ha, visual scoring after about 3 weeks
In short: as §3

[14] = system: AMARE; assay: as above; assay type: in vivo, Amaranthus retroflexus; conditions: dosage 320 g/ha, visual scoring after about 3 weeks vs untreated controls
In short: as §3

[15] = system: VERPE; assay: as above; assay type: in vivo, Veronica persica; conditions: dosage 320 g/ha, visual scoring after about 3 weeks vs untreated controls
In short: as §3

[16] = system: ABUTH; assay: Herbicidal post-emergence action 1a (greenhouse pots, visual rating); assay type: in vivo, Abutilon theophrasti; conditions: visual rating about 3 weeks after treatment
In short: as §1

[17] = system: LOLRI; assay: Herbicidal pre-emergence action 2a (greenhouse pots, visual scoring); assay type: in vivo, Lolium rigidum; conditions: dosage 320 g/ha, visual scoring after about 3 weeks vs untreated controls
In short: as §3

[18] = system: ALOMY; assay: Herbicidal post-emergence action 1a (greenhouse pots, visual rating); assay type: in vivo, Alopecurus myosuroides; conditions: Dosage 320 g/ha; rated visually about 3 weeks after treatment; 100% = plants have died, 0% = like control plants
In short: as §1

[19] = system: AVEFA; assay: as above; assay type: in vivo, Avena fatua; conditions: rated visually about 3 weeks after treatment, 100% = plants have died, 0% = like control plants
In short: as §1

[20] = system: VERPE; assay: as above; assay type: in vivo, Veronica persica; conditions: visual rating about 3 weeks after treatment
In short: as §1

[21] = system: MATIN; assay: as above; assay type: in vivo, Matricaria inodora; conditions: visual rating about 3 weeks after treatment
In short: as §1

[22] = system: POLCO; assay: as above; assay type: in vivo, Polygonum convolvulus; conditions: visual rating about 3 weeks after treatment
In short: as §1

Row | SMILES | Post-emergence action against ECHCG in % ([1]; Dosage 80 g/ha) [%] | Post-emergence action against ECHCG in % ([1]; Dosage 320 g/ha) [%] | Pre-emergence action against ABUTH in % [2] [%] | Pre-emergence action against ALOMY in % [3] [%] | Pre-emergence action against MATIN in % [4] [%] | Post-emergence action against AMARE in % ([5]; dosage 80 g/ha) [%] | Post-emergence action against AMARE in % ([5]; dosage 320 g/ha) [%] | Post-emergence action against LOLRI in % ([6]; Dosage 320 g/ha) [%] | Post-emergence action against SETVI in % ([7]; Dosage 80 g/ha) [%] | Post-emergence action against SETVI in % ([7]; Dosage 320 g/ha) [%] | Pre-emergence action against POLCO in % [8] [%] | Pre-emergence action against PHBPU in % [9] [%] | Post-emergence action against PHBPU in % ([11]; dosage 80 g/ha) [%] | Post-emergence action against PHBPU in % ([11]; dosage 320 g/ha) [%] | Pre-emergence action against SETVI in % [12] [%] | Pre-emergence action against AVEFA in % [13] [%] | Pre-emergence action against AMARE in % [14] [%] | Pre-emergence action against VERPE in % [15] [%] | Post-emergence action against ABUTH in % ([16]; dosage 320 g/ha) [%] | Pre-emergence action against LOLRI in % [17] [%] | also measured
1 | O=C(O)COc1nn(-c2cnccn2)c(-c2cncc(F)c2)c1Cl [Example I-92] | 90 | 90 | 90 | 90 | 100 | 80 | 90 | 90 | 80 | 80 | 90 | 90 | 80 | 90 | 100 | 100 | 100 | 100 | 90 | 100 | Pre-emergence action against ECHCG in % [10]: 90%; Post-emergence action against ALOMY in % [18]: 80%; Post-emergence action against AVEFA in % ([19]; Dosage 80 g/ha): 90%; Post-emergence action against AVEFA in % ([19]; Dosage 320 g/ha): 90%; Post-emergence action against VERPE in % ([20]; dosage 80 g/ha): 80%; Post-emergence action against VERPE in % ([20]; dosage 320 g/ha): 90%
2 | C[C@@H](Oc1nn(-c2cnccn2)c(-c2cncc(F)c2)c1Cl)C(=O)O [Example I-97] | 90 | 90 | 90 | 100 | 100 | 90 | 90 | 100 | 90 | 90 | 90 | 100 | 90 | 100 | 100 | 90 | 100 | 100 | 90 | 100 | Post-emergence action against MATIN in % ([21]; dosage 80 g/ha): 90%; Post-emergence action against MATIN in % ([21]; dosage 320 g/ha): 90%; Post-emergence action against LOLRI in % ([6]; Dosage 80 g/ha): 90%; Post-emergence action against POLCO in % ([22]; dosage 80 g/ha): 90%; Post-emergence action against POLCO in % ([22]; dosage 320 g/ha): 90%; Post-emergence action against ABUTH in % ([16]; dosage 80 g/ha): 90%; Post-emergence action against ALOMY in % [18]: 90%; Post-emergence action against AVEFA in % ([19]; Dosage 320 g/ha): 100%; Post-emergence action against VERPE in % ([20]; dosage 80 g/ha): 90%; Post-emergence action against VERPE in % ([20]; dosage 320 g/ha): 90%
